Test results published in patent US6110939A, “(Benzimidazolyl- and imidazopyridinyl) containing 1-(1,2-disubstituted piperidinyl) derivatives” (Janssen Pharmaceutica N.V., priority 1995, dated 2000).

Test system: substance P induced relaxation of the pig coronary arteries
Assay: Antagonism of substance P induced relaxation of the pig coronary arteries
Format: cell-based
Conditions: Sus scrofa, 0.5 h; test compound 1 × 10^-8; response to 10^-9 M substance P; 30 min incubation
Procedure: Antagonism of substance P induced relaxation of the pig coronary arteries
Segments of coronary arteries taken from pigs (killed by injection of an overdose of sodium pentobarbital) were inverted and mounted for recording of isometric tension in organ baths (volume 20 ml) with the endothelium at the outside. The preparations were bathed in Krebs - Henseleit solution. The solution was kept at 37° C. and gassed with a mixture of O2 /CO2 (95/5). After stabilisation of the preparations, prostaglandin F2α (10^-5 M) was administered to induce a contraction. This was repeated until contractile responses became stable. Then prostaglandin F2α was again administered and substance P (3×10^-10 M and 10^-9 M cumulatively) was added. […] After washing away the agonists, a known concentration of a compound of formula (I) was added. After an incubation period of 30 minutes, prostaglandin F2α (10^-5 M) and the same concentrations of substance P as described above were again administered in the presence of the compound to be tested.

Row | Structure (SMILES) | inhibition at 0.01 µM
1 | Cc1cc(C)cc(C(=O)N2CC[C@@H](N3CCC(Nc4nc5ccccc5n4Cc4cccs4)CC3)C[C@@H]2Cc2ccccc2)c1 (relative stereo) [Compound 8] | 14.7%

Same assay, conditions: Sus scrofa, 0.5 h; test compound 3 × 10^-8; response to 10^-9 M substance P; 30 min incubation

Row | Structure (SMILES) | inhibition at 0.03 µM
2 | Cc1nc(C)c(Cn2c(NC3CCN([C@H]4CCN(C(=O)c5cc(C(F)(F)F)cc(C(F)(F)F)c5)[C@@H](Cc5ccccc5)C4)CC3)nc3cccnc32)o1 (relative stereo) [Compound 17] | 94.5%
3 | Cc1ncc(Cn2c(NC3CCN([C@@H]4CCN(C(=O)c5cc(C(F)(F)F)cc(C(F)(F)F)c5)[C@@H](Cc5ccccc5)C4)CC3)nc3ccccc32)o1 (relative stereo) [Compound 16] | 88.8%
4 | O=C(c1cc(C(F)(F)F)cc(C(F)(F)F)c1)N1CC[C@@H](N2CCC(Cc3nc4ccccc4n3Cc3ccc(F)cc3)CC2)C[C@H]1Cc1ccccc1 (relative stereo) [Compound 40] | 93.3%
5 | CCOCCn1c(NC2CCN([C@@H]3CCN(C(=O)c4cc(C)cc(C)c4)[C@@H](Cc4ccccc4)C3)CC2)nc2ccccc21 (relative stereo) [Compound 2] | 41.1%
6 | Cc1ccc(Cn2c(NC3CCN([C@@H]4CCN(C(=O)c5cc(C(F)(F)F)cc(C(F)(F)F)c5)[C@@H](Cc5ccccc5)C4)CC3)nc3ccccc32)o1 (relative stereo) [Compound 29] | 65.6%
7 | CCOCCn1c(NC2CCC(Cc3ccccc3)N(C(=O)c3cc(C(F)(F)F)cc(C(F)(F)F)c3)CC2)nc2ccccc21 (stereo not shown) [Compound 150] | 98.1%
8 | O=C(c1cc(C(F)(F)F)cc(C(F)(F)F)c1)N1CC[C@@H](N2CCC(Nc3nc4ccccc4n3Cc3ccc(CO)o3)CC2)C[C@H]1Cc1ccccc1 (relative stereo) [Compound 44] | 91.5%
9 | Cc1ccc(Cn2c(CC3CCN([C@@H]4CCN(C(=O)c5cc(C(F)(F)F)cc(C(F)(F)F)c5)[C@H](Cc5ccccc5)C4)CC3)nc3ccccc32)o1 (relative stereo) [Compound 42] | 96.9%
10 | CCOCCn1c(NC2CCCN(C(=O)c3cc(C(F)(F)F)cc(C(F)(F)F)c3)C(Cc3ccccc3)C2)nc2ccccc21 (stereo not shown) [Compound 149] | 12.7%
11 | Cc1ccc(Cn2c(C(O)C3CCN([C@H]4CCN(C(=O)c5cc(C(F)(F)F)cc(C(F)(F)F)c5)[C@@H](Cc5ccccc5)C4)CC3)nc3ccccc32)o1 (stereo partly shown) [Compound 21] | 95.8%
12 | O=C(c1cc(C(F)(F)F)cc(C(F)(F)F)c1)N1CC[C@H](N2CCC(Nc3nc4ccccc4n3Cc3ccc(F)cc3)CC2)C[C@@H]1Cc1ccccc1 (relative stereo) [Compound 26] | 82.2%
13 | O=C(c1cc(C(F)(F)F)cc(C(F)(F)F)c1)N1CC[C@H](N2CCC(Oc3nc4ccccc4n3Cc3ccc(F)cc3)CC2)C[C@@H]1Cc1ccccc1 (relative stereo) [Compound 24] | 100%
14 | O=C(c1cc(C(F)(F)F)cc(C(F)(F)F)c1)N1CC[C@@H](N2CCC(Nc3nc4ccccc4n3Cc3ccc(CO)o3)CC2)C[C@@H]1Cc1ccccc1 (relative stereo) [Compound 43] | 85.2%
15 | CCOCCn1c(NC2CCN([C@H]3CCN(C(=O)c4cc(C(F)(F)F)cc(C(F)(F)F)c4)[C@@H](Cc4ccccc4)C3)CC2)nc2ccccc21 (relative stereo) [Compound 5] | 80.7%
16 | O=C(c1cc(C(F)(F)F)cc(C(F)(F)F)c1)N1CC[C@@H](N2CCC(Nc3nc4ccccc4n3Cc3ccc(F)cc3)CC2)C[C@@H]1Cc1ccccc1 (relative stereo) [Compound 27] | 92.8%
17 | Cc1ncc(Cn2c(NC3CCN([C@H]4CCN(C(=O)c5cc(C(F)(F)F)cc(C(F)(F)F)c5)[C@@H](Cc5ccccc5)C4)CC3)nc3ccccc32)o1 (relative stereo) [Compound 15] | 84.6%

Same assay, conditions: Sus scrofa, 0.5 h; test compound 3 × 10^-9; response to 10^-9 M substance P; 30 min incubation

Row | Structure (SMILES) | inhibition at 0.003 µM
18 | Cc1cc(C)cc(C(=O)N2CC[C@@H](N3CCC(Nc4nc5ccccc5n4Cc4ccc(C)o4)CC3)C[C@@H]2Cc2ccccc2)c1 (relative stereo) [Compound 32] | 20.1%
19 | Cc1ncc(Cn2c(OC3CCN([C@@H]4CCN(C(=O)c5cc(C(F)(F)F)cc(C(F)(F)F)c5)[C@H](Cc5ccccc5)C4)CC3)nc3ccccc32)o1 (relative stereo) [Compound 36] | 66%
20 | Cc1ncc(Cn2c(NC3CCN([C@@H]4CCN(C(=O)Nc5cc(C(F)(F)F)cc(C(F)(F)F)c5)[C@@H](Cc5ccccc5)C4)CC3)nc3ccccc32)o1 (racemic) [Compound 52, (±)-trans-N-[3,5-bis(trifluoromethyl)phenyl]-4-[4-[[1-[(2-methyl-5-oxazolyl)methyl]-1H-benzimidazol-2-yl]amino]-1-piperidinyl]-2-(phenylmethyl)-1-piperidinecarboxamide] | 6.3%
21 | CCOCCn1c(N[C@@H]2CCN(C(=O)c3cc(C(F)(F)F)ccc3C(F)(F)F)[C@@H](Cc3ccc(Cl)cc3)C2)nc2ccccc21 (relative stereo) [Compound 144] | 88.4%
22 | Cc1ncc(Cn2c(N[C@@H]3CCN(C(=O)c4ccc5ccccc5c4)[C@@H](Cc4ccccc4)C3)nc3ccccc32)o1 (relative stereo) [Compound 45] | 13.1%
23 | Cc1ncc(Cn2c(NC3CCN([C@@H]4CCN(C(=O)c5cccs5)[C@@H](Cc5ccccc5)C4)CC3)nc3ccccc32)o1 (relative stereo) [Compound 56] | 8.7%
24 | Cc1ncc(Cn2c(OC3CCN([C@@H]4CCN(C(=O)c5cc(C(F)(F)F)cc(C(F)(F)F)c5)[C@@H](Cc5ccccc5)C4)CC3)nc3ccccc32)o1 (relative stereo) [Compound 37] | 70.5%
25 | Cc1ccc(Cn2c(CC3CCN([C@@H]4CCN(C(=O)c5cc(C(F)(F)F)cc(C(F)(F)F)c5)[C@@H](Cc5ccccc5)C4)CC3)nc3ccccc32)o1 (relative stereo) [Compound 41] | 82.6%
26 | Cc1ncc(Cn2c(NC3CCN([C@@H]4CCN(C(=O)c5cc(Cl)cc(Cl)c5)[C@@H](Cc5ccccc5)C4)CC3)nc3ccccc32)o1 (relative stereo) [Compound 55] | 28.1%
27 | Cc1ccc(Cn2c(NC3CCN([C@@H]4CCN(C(=O)c5cc(C(F)(F)F)cc(C(F)(F)F)c5)[C@@H](Cc5ccccc5)C4)CC3)nc3cccnc32)o1 (relative stereo) [Compound 20] | 68.9%
28 | CCOCCn1c(N[C@@H]2CCN(C(=O)c3cc(C(F)(F)F)ccc3C(F)(F)F)[C@H](Cc3ccc(Cl)cc3)C2)nc2ccccc21 (relative stereo) [Compound 145] | 92.2%
29 | Cc1ncc(Cn2c(NC3CCN([C@@H]4CCN(C(=O)c5sc(C)nc5C)[C@H](Cc5ccccc5)C4)CC3)nc3ccccc32)o1 (relative stereo) [Compound 65] | 9.7%

Same assay, conditions: test compound 3 × 10^-8; response to 10^-9 M substance P; 30 min incubation

Row | Structure (SMILES) | % inhibition
30 | CCOCCn1c(NC2CCN(C3CCN(C(=O)c4cc(C(F)(F)F)cc(C(F)(F)F)c4)C(Cc4ccccc4)C3)C(Cc3ccccc3)C2)nc2ccccc21 (stereo not drawn) [Compound 14, 2α,4β-trans-1-[3,5-bis(trifluoromethyl)benzoyl]-4-[4-[[1-(2-ethoxyethyl)-1H-benzimidazol-2-yl]amino]-2-(phenylmethyl)-1-piperidinyl]-2-(phenylmethyl)piperidine] | 53.3%
31 | CCOCCn1c(NC2CCN(C3CCN(C(=O)c4cc(C(F)(F)F)cc(C(F)(F)F)c4)C(Cc4ccccc4)C3)C(Cc3ccccc3)C2)nc2ccccc21 (stereo not drawn) [Compound 13, 2α,4α-trans-1-[3,5-bis(trifluoromethyl)benzoyl]-4-[4-[[1-(2-ethoxyethyl)-1H-benzimidazol-2-yl]amino]-2-(phenylmethyl)-1-piperidinyl]-2-(phenylmethyl)piperidine] | 19.9%
